Measured values published in patent publication US7807663B2, “Therapeutic agents for diabetes” (Ajinomoto Co., Inc., priority 2003, dated 2010).

Each compound was assayed on adipose cells of rats (assay: Evaluation of the sugar transportation activity (2-[14C(U)]-deoxy-D-glucose incorporation)). Settings: concentration with reinforcing effect of 50% of that of insulin (100 nM) = 100%; rat adipose cells, 30 min pre-culture at 37° C., 5 min uptake.
Format: cell-based, Wistar rats
Experimental: 1. Preparation of Adipose Cells of Rats:
After the decapitation and venesection of 6 male Wistar rats (body weight: 150 to 200 g), an incision was made in the abdomen of each rat to extract 6 g in total of epididymal adipose tissues. The tissues were finely cut into 2 mm×2 mm pieces in 6 ml of KRH (Krebs-Ringer Hepes, composition: 130 mM of sodium chloride, 4.7 mM of potassium chloride, 1.2 mM of potassium dihydrogenphosphate, 1.2 mM of magnesium sulfate, 1 mM of calcium chloride and 25 mM of Hepes, pH=7.6) containing 5% of BSA (bovine serum albumin). 24 mg of collagenase (type I) was added thereto and the digestion treatment was conducted for about 40 minutes to obtain about 6 ml of isolated adipose cells. The collagenase was removed by the buffer exchange. 2% BSA/KRH solution was added to the residue for the re-suspension to obtain 45 ml of an adipose cell suspension.
2. Evaluation of the Sugar Transportation Activity:
The sugar transportation activity of the compound (I) of the present invention was evaluated with reference to a method described in a literature [Annual Review of Biochemistry, Vol. 55, p. 1059 (1986)]. In the test, 200 μL of the adipose cell suspension was poured in each polystyrene test tube, 100 μL of the solution of the test substance (by dilution of 10 mg/mL dimethyl sulfoxide solution with KRH) was added thereto, and the obtained mixture was shaken and then cultured at 37° C. for 30 minutes. The sugar transportation activity was evaluated by measuring the quantity of 2-[^14C(U)]-deoxy-D-glucose incorporated per a unit time. Namely, 2-[^14C(U)]-deoxy-D-glucose was added to the adipose cell suspension after the pre-culture (the final concentration: 0.5 μCi/sample). 5 minutes after, cytochalasin B (final concentration: 10 μM) was added to the mixture to terminate the sugar transportation. After forming a dinonyl phthalate layer, the obtained mixture was centrifuged to separate the adipose cells from the buffer. The quantity of 2-[^14C(U)]-deoxy-D-glucose contained in the adipose cell layer was determined with a liquid scintillation counter to determine the quantity of the incorporated sugar. In this evaluation system, when insulin (100 nM) having the effect of reinforcing the sugar transportation was used, the effect was about 7 times as high as that obtained in the insulin-free control group.
The results of the evaluation of the sugar transportation activity obtained by using 100 μg/mL of the compound (I) of the present invention are shown in Table 3. The sugar transportation activity in Table 3 was evaluated on the basis of the reinforcing effect of insulin (100 nM). The sugar transportation activity A in Table 3 was determined in terms of the concentration (EC50: μg/mL) of a test compound, having a reinforcing effect corresponding to 50% on the basis of the reinforcing effect of insulin (100 nM) having a reinforcing effect of 100%.
The symbols in Table 3 are as follows: • No: Compound No. in Tables 1 and 2, and • A: sugar transportation activity.

SMILES	A: sugar transportation activity (EC50) [µg/mL]
COCC(=O)N1[C@@H]2CCCC[C@H]2NC2=C(C(=O)NC2)[C@H]1c1ccccc1OC(F)(F)F [Compound 69]	2
CC(=O)N1[C@@H]2CCCC[C@H]2NC2=C(C(=O)NC2)[C@H]1c1ccccc1Br [Compound 114]	6
O=C1NCC2=C1[C@@H](c1ccccc1Cl)N(C(=O)CC(F)(F)F)[C@@H]1CCCC[C@H]1N2 [Compound 118]	0.5
CCOc1ccccc1[C@@H]1C2=C(CNC2=O)N[C@@H]2CCCC[C@H]2N1C(=O)C(F)(F)F [Compound 49]	5
COc1ccccc1[C@@H]1C2=C(CNC2=O)N[C@@H]2CCCC[C@H]2N1C(=O)Cc1ccccc1 [Compound 13]	5
O=C1NCC2=C1[C@@H](c1ccccc1F)N(C(=O)C1CC1)[C@@H]1CCCC[C@H]1N2 [Compound 125]	2
COc1ccccc1[C@@H]1C2=C(CNC2=O)N[C@@H]2CCCC[C@H]2N1C(=O)CCNC(=O)OCc1ccccc1 [Compound 22]	8
COC(=O)CC(=O)N1[C@@H]2CCCC[C@H]2NC2=C(C(=O)NC2)[C@H]1c1ccccc1Br [Compound 111]	1.5
CCc1ccccc1[C@@H]1C2=C(CNC2=O)N[C@@H]2CCCC[C@H]2N1C(=O)OC [Compound 99]	4
COc1ccccc1[C@@H]1C2=C(CNC2=O)N[C@@H]2CCCC[C@H]2N1C(=O)CCc1ccc(F)c(F)c1 [Compound 27]	4.2
CCOCC(=O)N1[C@@H]2CCCC[C@H]2NC2=C(C(=O)NC2)[C@H]1c1cccc(Cl)c1C [Compound 108]	5
COCC(=O)N1[C@@H]2CCCC[C@H]2NC2=C(C(=O)NC2)[C@H]1c1ccccc1C [Compound 87]	6
CCc1ccccc1[C@@H]1C2=C(CNC2=O)N[C@@H]2CCCC[C@H]2N1C(=O)COC [Compound 97]	6
CCNC(=O)N1[C@@H]2CCCC[C@H]2NC2=C(C(=O)NC2)[C@H]1c1ccccc1OC [Compound 41]	3.6
CCOCC(=O)N1[C@@H]2CCCC[C@H]2NC2=C(C(=O)NC2)[C@H]1c1ccc(F)cc1OC [Compound 71]	7.8
CCC(=O)N1[C@@H]2CCCC[C@H]2NC2=C(C(=O)NC2)[C@H]1c1ccccc1CC [Compound 94]	2.2
COCC(=O)N1[C@@H]2CCCC[C@H]2NC2=C(C(=O)NC2)[C@H]1c1ccccc1OC [Compound 10]	2
CCOc1ccccc1[C@@H]1C2=C(CNC2=O)N[C@@H]2CCCC[C@H]2N1C(C)=O [Compound 46]	15
CCOCC(=O)N1[C@@H]2CCCC[C@H]2NC2=C(C(=O)NC2)[C@H]1c1ccccc1F [Compound 126]	2
CCOC(=O)N1[C@@H]2CCCC[C@H]2NC2=C(C(=O)NC2)[C@H]1c1ccccc1OC [Compound 38]	4.2
CCc1ccccc1[C@@H]1C2=C(CNC2=O)N[C@@H]2CCCC[C@H]2N1C(=O)CC(=O)OC [Compound 95]	2
COc1ccccc1[C@@H]1C2=C(CNC2=O)N[C@@H]2CCCC[C@H]2N1C(=O)CC(C)=O [Compound 29]	5.5
CCC(=O)N1[C@@H]2CCCC[C@H]2NC2=C(C(=O)NC2)[C@H]1c1ccc(F)cc1OC [Compound 70]	0.82
COC(=O)CCC(=O)N1[C@@H]2CCCC[C@H]2NC2=C(C(=O)NC2)[C@H]1c1ccccc1OC [Compound 17]	4.8
